Test results from ChEMBL document CHEMBL1154412, “In vitro activity of telavancin against gram-positive clinical isolates recently obtained in Europe” (Antimicrob Agents Chemother, 2007).
≈ marks a conversion by molar mass, not a printed value.

Experiments:
Assay type in all cases: functional
[1] = test system: Streptococcus pneumoniae; assay: Antibacterial activity against penicillin-susceptible Streptococcus pneumoniae after 20 to 24 hrs by broth microdilution method
[2] = test system: Staphylococcus aureus; assay: Antimicrobial activity against methicillin-resistant Staphylococcus aureus after 20 to 24 hrs by broth microdilution method
[3] = test system: Streptococcus viridans; assay: Antimicrobial activity against Streptococcus viridans after 20 to 24 hrs by broth microdilution method
[4] = test system: Enterococcus faecium; assay: Antibacterial activity against vancomycin-resistant Enterococcus faecium after 20 to 24 hrs by broth microdilution method
[5] = test system: Streptococcus pneumoniae; assay: Antibacterial activity against penicillin-intermediate Streptococcus pneumoniae after 20 to 24 hrs by broth microdilution method
[6] = test system: Staphylococcus aureus; assay: Antimicrobial activity against methicillin-susceptible Staphylococcus aureus after 20 to 24 hrs by broth microdilution method
[7] = test system: Enterococcus faecalis; assay: Antimicrobial activity against vancomycin-susceptible Enterococcus faecalis after 20 to 24 hrs by broth microdilution method
[8] = test system: Streptococcus sp. 'group A'; assay: Antimicrobial activity against Streptococcus group A after 20 to 24 hrs by broth microdilution method
[9] = test system: Streptococcus sp. 'group B'; assay: Antimicrobial activity against Streptococcus group B after 20 to 24 hrs by broth microdilution method
[10] = test system: Streptococcus pneumoniae; assay: Antibacterial activity against penicillin-resistant Streptococcus pneumoniae after 20 to 24 hrs by broth microdilution method
[11] = test system: Staphylococcus; assay: Antimicrobial activity against methicillin-resistant coagulase-negative Staphylococcus after 20 to 24 hrs by broth microdilution method
[12] = test system: Staphylococcus; assay: Antimicrobial activity against methicillin-susceptible coagulase-negative Staphylococcus after 20 to 24 hrs by broth microdilution method
[13] = test system: Enterococcus faecium; assay: Antibacterial activity against vancomycin-susceptible Enterococcus faecium after 20 to 24 hrs by broth microdilution method
[14] = test system: Enterococcus faecalis; assay: Antimicrobial activity against vancomycin-resistant Enterococcus faecalis after 20 to 24 hrs by broth microdilution method

| Structure (SMILES) | MIC50 [1] [µg/mL] | MIC90 [1] [µg/mL] | MIC50 [2] [µg/mL] | MIC90 [2] [µg/mL] | MIC50 [3] [µg/mL] | MIC90 [3] [µg/mL] | MIC50 [4] [µg/mL] | MIC50 [5] [µg/mL] | MIC90 [5] [µg/mL] | MIC50 [6] [µg/mL] | MIC90 [6] [µg/mL] | MIC50 [7] [µg/mL] | MIC90 [7] [µg/mL] | MIC50 [8] [µg/mL] | MIC90 [8] [µg/mL] | MIC50 [9] [µg/mL] | MIC90 [9] [µg/mL] | MIC50 [10] [µg/mL] | MIC90 [10] [µg/mL] | MIC50 [11] [µg/mL] | further results |
| --- | --- | --- | --- | --- | --- | --- | --- | --- | --- | --- | --- | --- | --- | --- | --- | --- | --- | --- | --- | --- | --- |
| CCCCCCCCCC(=O)N[C@@H](Cc1c[nH]c2ccccc12)C(=O)N[C@H](CC(N)=O)C(=O)N[C@@H](CC(=O)O)C(=O)N[C@@H]1C(=O)NCC(=O)N[C@@H](CCCN)C(=O)N[C@@H](CC(=O)O)C(=O)N[C@H](C)C(=O)N[C@@H](CC(=O)O)C(=O)NCC(=O)N[C@H](CO)C(=O)N[C@@H]([C@H](C)CC(=O)O)C(=O)N[C@@H](CC(=O)c2ccccc2N)C(=O)O[C@@H]1C | 0.12 (≈ 0.074 µM) | 0.25 (≈ 0.154 µM) | 0.5 (≈ 0.309 µM) | 0.5 (≈ 0.309 µM) | 0.5 (≈ 0.309 µM) | 1 (≈ 0.617 µM) | 2 (≈ 1.23 µM) | 0.12 (≈ 0.074 µM) | 0.25 (≈ 0.154 µM) | 0.25 (≈ 0.154 µM) | 0.5 (≈ 0.309 µM) | 1 (≈ 0.617 µM) | 2 (≈ 1.23 µM) | 0.06 (≈ 0.037 µM) | 0.06 (≈ 0.037 µM) | 0.25 (≈ 0.154 µM) | 0.25 (≈ 0.154 µM) | 0.12 (≈ 0.074 µM) | 0.12 (≈ 0.074 µM) | 0.5 (≈ 0.309 µM) | MIC90 [4]: 2 µg/mL (≈ 1.23 µM); MIC90 [11]: 0.5 µg/mL (≈ 0.309 µM); MIC50 [12]: 0.5 µg/mL (≈ 0.309 µM); MIC90 [12]: 1 µg/mL (≈ 0.617 µM); MIC50 [13]: 2 µg/mL (≈ 1.23 µM); MIC90 [13]: 4 µg/mL (≈ 2.47 µM); MIC [14]: 0.5 µg/mL (≈ 0.309 µM); MIC50 [14]: 0.5 µg/mL (≈ 0.309 µM); MIC90 [14]: 2 µg/mL (≈ 1.23 µM) |
| CC1(C)S[C@@H]2[C@H](NC(=O)[C@H](N)c3ccccc3)C(=O)N2[C@H]1C(=O)O [AMPICILLIN] |  |  |  |  |  |  | 128 (≈ 366 µM) |  |  |  |  | 1 (≈ 2.86 µM) | 2 (≈ 5.72 µM) |  |  |  |  |  |  |  | MIC90 [4]: 128 µg/mL (≈ 366 µM); MIC50 [13]: 64 µg/mL (≈ 183 µM); MIC90 [13]: 128 µg/mL (≈ 366 µM); MIC [14]: 1 µg/mL (≈ 2.86 µM); MIC50 [14]: 1 µg/mL (≈ 2.86 µM); MIC90 [14]: 4 µg/mL (≈ 11.4 µM) |
| CO/N=C(\C(=O)N[C@@H]1C(=O)N2C(C(=O)O)=C(CSc3nc(=O)c(O)nn3C)CS[C@H]12)c1csc(N)n1 [CEFTRIAXONE] | 0.03 (≈ 0.0541 µM) | 0.03 (≈ 0.0541 µM) |  |  | 0.12 (≈ 0.216 µM) | 2 (≈ 3.61 µM) |  | 0.12 (≈ 0.216 µM) | 1 (≈ 1.8 µM) |  |  |  |  | 0.03 (≈ 0.0541 µM) | 0.03 (≈ 0.0541 µM) | 0.06 (≈ 0.108 µM) | 0.06 (≈ 0.108 µM) | 1 (≈ 1.8 µM) | 2 (≈ 3.61 µM) |  |  |
| CO/N=C(\C(=O)N[C@@H]1C(=O)N2C(C(=O)O)=C(COC(N)=O)CS[C@H]12)c1ccco1 [CEFUROXIME] | ≤ 0.12 | ≤ 0.12 |  |  | ≤ 0.12 | 2 (≈ 4.71 µM) |  | 0.5 (≈ 1.18 µM) | 4 (≈ 9.43 µM) |  |  |  |  | ≤ 0.12 | ≤ 0.12 | ≤ 0.12 | ≤ 0.12 | > 4 | > 4 |  | MIC [1]: ≤ 0.12 µg/mL; MIC [3]: ≤ 0.12 µg/mL; MIC [8]: ≤ 0.12 µg/mL; MIC [9]: ≤ 0.12 µg/mL; MIC [10]: ≥ 4 µg/mL |
| O=C(O)c1cn(C2CC2)c2cc(N3CCNCC3)c(F)cc2c1=O [CIPROFLOXACIN] |  |  | > 8 | > 8 |  |  | 32 (≈ 96.6 µM) |  |  | 0.25 (≈ 0.754 µM) | 1 (≈ 3.02 µM) | 1 (≈ 3.02 µM) | > 32 |  |  |  |  |  |  | 2 (≈ 6.04 µM) | MIC90 [11]: > 8 µg/mL; MIC50 [14]: 1 µg/mL (≈ 3.02 µM) |
| CCC[C@@H]1C[C@@H](C(=O)N[C@@H]([C@H]2O[C@H](SC)[C@H](O)[C@@H](O)[C@H]2O)[C@H](C)Cl)N(C)C1 [CLINDAMYCIN] | 0.06 (≈ 0.141 µM) | 0.06 (≈ 0.141 µM) |  | > 4 | ≤ 0.03 | > 0.25 |  | 0.06 (≈ 0.141 µM) | > 0.25 | ≤ 0.5 | ≤ 0.5 |  |  | ≤ 0.03 | 0.06 (≈ 0.141 µM) | 0.06 (≈ 0.141 µM) | 0.06 (≈ 0.141 µM) | > 0.25 |  |  | MIC [3]: ≤ 0.03 µg/mL; MIC [6]: ≤ 0.5 µg/mL; MIC [8]: ≤ 0.03 µg/mL; MIC90 [11]: > 4 µg/mL; MIC [12]: ≤ 0.5 µg/mL; MIC50 [12]: ≤ 0.5 µg/mL; MIC90 [12]: ≤ 0.5 µg/mL |
| CC[C@H]1OC(=O)[C@H](C)[C@@H](O[C@H]2C[C@@](C)(OC)[C@@H](O)[C@H](C)O2)[C@H](C)[C@@H](O[C@@H]2O[C@H](C)C[C@H](N(C)C)[C@H]2O)[C@](C)(O)C[C@@H](C)C(=O)[C@H](C)[C@@H](O)[C@]1(C)O [ERYTHROMYCIN] | 0.03 (≈ 0.0409 µM) | 0.06 (≈ 0.0818 µM) | > 16 |  | 0.03 (≈ 0.0409 µM) | > 1 |  | 0.03 (≈ 0.0409 µM) | > 1 | 0.5 (≈ 0.681 µM) | > 16 |  |  | 0.03 (≈ 0.0409 µM) | 0.06 (≈ 0.0818 µM) | 0.03 (≈ 0.0409 µM) | 0.5 (≈ 0.681 µM) | > 1 |  | > 16 | MIC50 [12]: 0.25 µg/mL (≈ 0.341 µM); MIC90 [12]: > 16 µg/mL |
